Laboratory results from patent US20260027122A1, “USE OF IMIDAZOLINONE DERIVATIVE IN COMBINATION WITH RADIOTHERAPY IN TREATMENT OF TUMORS” (CHENGDU BAIYU PHARMACEUTICAL CO., LTD., priority 2022, published 2026).
Marks after values point to notes of the source that are not given here.

Tests used:
CT26 transplanted tumor = experiment: Inhibition experiment using BALB/c mouse model bearing CT26 transplanted tumor: tumor volume; assay type: in vivo, BALB/c mice; conditions: for Tumor volume (Mean ± SEM): Compound A 20 mpk once a day + IR 2 Gy for 5 consecutive days
Excerpt: (§1) Female BALB/c mice were selected to constitute a CT26 subcutaneous transplanted tumor model by subcutaneous injection of tumor cells. When the mean tumor volume reached 150-200 mm^3, mice were divided into 3 experimental groups: Vehicle, IR, and (Compound A (20 mpk)+IR), respectively, with 8 animals per group and 24 animals in total for grouping experiments. Each irradiated group was given an irradiation dose of 2 Gy for 5 consecutive days, the administration group was given the corresponding drug once a day for 39 consecutive days, and the Vehicle group was given a vehicle.
2.1 Tumor volume: during a drug treatment cycle, the long diameter (a) and short diameter (b) of tumor tissue were measured using an electronic vernier caliper to calculate the volume of the tumor (tumor volume=0.5×a×b^2).

[1] = BALB/c mouse model bearing CT26 transplanted tumor: body weight of mice; assay type: in vivo; conditions: for Body weight: Compound A 20 mpk once a day + IR 2 Gy for 5 consecutive days, in g (unit assumed)
Excerpt: as §1
2.2 Body weight of mice: mice were weighed at least twice a week during a drug treatment cycle.

[2] = compound A in combination with IR

CCn1c(=O)n(C2CCOCC2)c2nc(Nc3cc(F)c(C(N)=O)cc3C)ncc21 [Compound A]
Tumor volume (Mean ± SEM) (CT26 transplanted tumor; D0 (day of grouping)): 168 ± 22 mm^3
Tumor volume (Mean ± SEM) (CT26 transplanted tumor; D4): 260 ± 41 mm^3
Tumor volume (Mean ± SEM) (CT26 transplanted tumor; D7): 284 ± 47* mm^3
Tumor volume (Mean ± SEM) (CT26 transplanted tumor; D11): 253 ± 56*** mm^3
Tumor volume (Mean ± SEM) (CT26 transplanted tumor; D14): 155 ± 28*** mm^3
Tumor volume (Mean ± SEM) (CT26 transplanted tumor; D18): 101 ± 33***# mm^3
Tumor volume (Mean ± SEM) (CT26 transplanted tumor; D21): 93 ± 34# mm^3
Tumor volume (Mean ± SEM) (CT26 transplanted tumor; D25): 169 ± 71# mm^3
Tumor volume (Mean ± SEM) (CT26 transplanted tumor; D28): 288 ± 105# mm^3
Tumor volume (Mean ± SEM) (CT26 transplanted tumor; D32): 462 ± 148# mm^3
Tumor volume (Mean ± SEM) (CT26 transplanted tumor; D35): 605 ± 189# mm^3
Tumor volume (Mean ± SEM) (CT26 transplanted tumor; D39): 828 ± 247# mm^3
Effect on the anti-tumor efficacy of radiotherapy (CT26 transplanted tumor; [2]): significantly enhance the anti-tumor efficacy of radiotherapy
Tumor volume compared to the Vehicle and IR groups (CT26 transplanted tumor; [2]): significantly reduced
Body weight ([1]; D0): 16.8 ± 0.3
Body weight ([1]; D4): 17.1 ± 0.3
Body weight ([1]; D7): 16.0 ± 0.2
Body weight ([1]; D11): 17.6 ± 0.2
Body weight ([1]; D14): 17.9 ± 0.2
Body weight ([1]; D18): 18.6 ± 0.2
Body weight ([1]; D21): 19.1 ± 0.2
Body weight ([1]; D25): 19.4 ± 0.3
Body weight ([1]; D28): 19.7 ± 0.2
Body weight ([1]; D32): 19.9 ± 0.4
Body weight ([1]; D35): 20.1 ± 0.3
Body weight ([1]; D39): 19.6 ± 0.3
Tolerance of the animals ([1]; compound A in combination with radiotherapy): good tolerance
Effect on body weight gain of animals ([1]; compound A in combination with radiotherapy, to D39): no effect on body weight gain
